# In patent publication US20250108038A1 (priority 2023, published 2025):
# Several values for one entry are separate records, joined by “and”; a condition that tells them apart may be missing. Equal values may be shown once. Where a name gives a salt, the structure may show the parent alone.
# Tested on: Long Evans rats
# Assay: Behavioral satiety sequence (BSS)
# Assay type: in vivo, Long Evans rat
# Text: The Behavioural Satiety Sequence (BSS) is a technique used to evaluate physiological satiety. It is based on the expression of a sequence of behaviors including eating, grooming, locomotor activity, followed by resting, which are typically observed in rodents post-ingestion (Halford et al, 1998, Pharmacology Biochemistry and Behaviour. 61(2): 159-168). The BSS is a widely used model for determining the effects of novel pharmaceuticals on food intake and measures of satiety in rodents (Oliveira et al, 2011, Revista de Nutrição. 24(4) 619-628), and to discriminate the cause of reduced food intake following pharmacological manipulation. For example, treatments that may reduce food intake by non-specific mechanisms, such as immobility, malaise, and taste adulteration, will disrupt this sequence (Halford et al, 1998, Pharmacology Biochemistry and Behaviour. 61(2): 159-168).
# Specifically, 12 male Long-Evans rats were food-deprived for 22 h with a 2 h feeding period each day. Rats were trained to consume daily food during the 2 h period over 25 days. The testing phase was initiated once the rats consistently consumed 16-18 g of food per day with ≤10% variance in amount of feed consumed. Feeding took place in designated individual boxes in a quiet room separate from the housing room. Continuous remote monitoring via video camera during feeding was used to assess the BSS. Food consumption was measured by weighing the total available food before and after the 2 h feeding window, correcting for spillage. Lorcaserin (1 mg/kg) was included as a reference control (Higgins et al, 2011, Neuropsychopharmacology. 37(5): 1177-1191). Subjects were tested using a repeated-measures, Latin square design with 2-3 days wash-out between treatment cycles.
# On scheduled test days, animals were monitored remotely via video camera during the feeding access period. The occurrence of four mutually exclusive behaviors (eating/drinking, grooming, active, rest) were individually scored. Over the 2 h feeding period, behaviors were assessed every 30 seconds. Scores were compiled into 23 5 min timebins (timebin 24 was removed due to early removal of animals) and the frequency of each behavior within each timebin was calculated to determine a temporal frequency of each measure (Rodgers et al, 2010, Pharmacology Biochemistry and Behaviour. 97: 3-14). Percentage time was plotted for each behavioral sequence in each timebin to compare between treatment groups (Higgins et al, 2011, Neuropsychopharmacology. 37(5): 1177-1191).
# [1] = 1 mg/kg, AVG of animals LT-1 to LT-12
# [2] = 1 mg/kg, raw score per animal LT-1 to LT-12, hydrochloride
# [3] = Lorcaserin 1 mg/kg s.c., AVG of the group
# [4] = Lorcaserin 1 mg/kg s.c., raw score per animal, hydrochloride
smiles,measurement,setting,value
"C[C@H]1CNCCc2ccc(Cl)cc21 [lorcaserin, Lorcaserin hydrochloride, reference compound]","BSS scoring A (active), Time Bin 13 (60-65 TOTAL), AVG",[1],0.20
same,"BSS scoring A (active), Time Bin 14 (65-70 TOTAL), AVG",[1],0.20
same,"BSS scoring A (active), Time Bin 15 (70-75 TOTAL), AVG",[1],0.12
same,"BSS scoring A (active), Time Bin 16 (75-80 TOTAL), AVG",[1],0.06
same,"BSS scoring A (active), Time Bin 17 (80-85 TOTAL), AVG",[1],0.07
same,"BSS scoring A (active), Time Bin 18 (85-90 TOTAL), AVG",[1],0.13
same,"BSS scoring E (eating/drinking), Time Bin 13 (60-65 TOTAL), AVG",[1],0.66
same,"BSS scoring E (eating/drinking), Time Bin 14 (65-70 TOTAL), AVG",[1],0.65
same,"BSS scoring E (eating/drinking), Time Bin 15 (70-75 TOTAL), AVG",[1],0.70
same,"BSS scoring E (eating/drinking), Time Bin 16 (75-80 TOTAL), AVG",[1],0.83
same,"BSS scoring E (eating/drinking), Time Bin 17 (80-85 TOTAL), AVG",[1],0.84
same,"BSS scoring E (eating/drinking), Time Bin 18 (85-90 TOTAL), AVG",[1],0.73
same,"BSS scoring G (grooming), Time Bin 13 (60-65 TOTAL), AVG",[1],0.07
same,"BSS scoring G (grooming), Time Bin 14 (65-70 TOTAL), AVG",[1],0.04
same,"BSS scoring G (grooming), Time Bin 15 (70-75 TOTAL), AVG",[1],0.12
same,"BSS scoring G (grooming), Time Bin 16 (75-80 TOTAL), AVG",[1],0.08
same,"BSS scoring G (grooming), Time Bin 17 (80-85 TOTAL), AVG",[1],0.04
same,"BSS scoring G (grooming), Time Bin 18 (85-90 TOTAL), AVG",[1],0.10
same,"BSS scoring R (resting), Time Bin 13 (60-65 TOTAL), AVG",[1],0.08
same,"BSS scoring R (resting), Time Bin 14 (65-70 TOTAL), AVG",[1],0.11
same,"BSS scoring R (resting), Time Bin 15 (70-75 TOTAL), AVG",[1],0.07
same,"BSS scoring R (resting), Time Bin 16 (75-80 TOTAL), AVG",[1],0.03
same,"BSS scoring R (resting), Time Bin 17 (80-85 TOTAL), AVG",[1],0.05
same,"BSS scoring R (resting), Time Bin 18 (85-90 TOTAL), AVG",[1],0.03
same,"BSS scoring A (active), Time Bin 13 (60-65 TOTAL)",[2],6 and 5 and 2 (2×) and 1 (2×) and 0 (4×) and 4 and 3
same,"BSS scoring A (active), Time Bin 14 (65-70 TOTAL)",[2],4 (3×) and 2 (4×) and 0 and 1 (4×)
same,"BSS scoring A (active), Time Bin 15 (70-75 TOTAL)",[2],0 (5×) and 1 (4×) and 4 (2×) and 2
same,"BSS scoring A (active), Time Bin 16 (75-80 TOTAL)",[2],0 (9×) and 2 and 1 and 4
same,"BSS scoring A (active), Time Bin 17 (80-85 TOTAL)",[2],0 (8×) and 2 (4×)
same,"BSS scoring A (active), Time Bin 18 (85-90 TOTAL)",[2],4 and 0 (5×) and 1 (4×) and 6 and 2
same,"BSS scoring E (eating/drinking), Time Bin 13 (60-65 TOTAL)",[2],4 and 3 and 6 and 5 (2×) and 7 (2×) and 8 (3×) and 9 (2×)
same,"BSS scoring E (eating/drinking), Time Bin 14 (65-70 TOTAL)",[2],6 (2×) and 5 and 7 and 10 and 4 (2×) and 8 (3×) and 3 and 9
same,"BSS scoring E (eating/drinking), Time Bin 15 (70-75 TOTAL)",[2],6 (3×) and 9 (4×) and 2 and 10 and 3 and 8 and 7
same,"BSS scoring E (eating/drinking), Time Bin 16 (75-80 TOTAL)",[2],10 (7×) and 1 and 9 (2×) and 5 and 6
same,"BSS scoring E (eating/drinking), Time Bin 17 (80-85 TOTAL)",[2],8 (3×) and 9 (3×) and 10 (3×) and 7 (2×) and 6
same,"BSS scoring E (eating/drinking), Time Bin 18 (85-90 TOTAL)",[2],4 and 9 (2×) and 6 (2×) and 10 (3×) and 7 (3×) and 3
same,"BSS scoring G (grooming), Time Bin 13 (60-65 TOTAL)",[2],0 (8×) and 2 (2×) and 3 and 1
same,"BSS scoring G (grooming), Time Bin 14 (65-70 TOTAL)",[2],0 (8×) and 1 (3×) and 2
same,"BSS scoring G (grooming), Time Bin 15 (70-75 TOTAL)",[2],0 (6×) and 3 and 1 (4×) and 7
same,"BSS scoring G (grooming), Time Bin 16 (75-80 TOTAL)",[2],0 (10×) and 6 and 3
same,"BSS scoring G (grooming), Time Bin 17 (80-85 TOTAL)",[2],0 (8×) and 1 (3×) and 2
same,"BSS scoring G (grooming), Time Bin 18 (85-90 TOTAL)",[2],2 (3×) and 1 (3×) and 0 (5×) and 3
same,"BSS scoring R (resting), Time Bin 13 (60-65 TOTAL)",[2],0 (7×) and 2 and 4 and 1 (3×)
same,"BSS scoring R (resting), Time Bin 14 (65-70 TOTAL)",[2],0 (7×) and 1 (2×) and 4 (2×) and 3
same,"BSS scoring R (resting), Time Bin 15 (70-75 TOTAL)",[2],4 and 1 (2×) and 0 (8×) and 2
same,"BSS scoring R (resting), Time Bin 16 (75-80 TOTAL)",[2],0 (9×) and 1 (2×) and 2
same,"BSS scoring R (resting), Time Bin 17 (80-85 TOTAL)",[2],2 (2×) and 1 (2×) and 0 (8×)
same,"BSS scoring R (resting), Time Bin 18 (85-90 TOTAL)",[2],0 (9×) and 2 and 1 (2×)
same,effect on the behavioral satiety sequence (BSS),"Compound I-19 0.1-3 mg/kg IP, lorcaserin 1 mg/kg SC",preserved the BSS at the 1 mg/kg dose
same,"BSS scoring A (active), Time Bin 7 (30-35 TOTAL), AVG",[3],0.18
same,"BSS scoring A (active), Time Bin 8 (35-40 TOTAL), AVG",[3],0.21
same,"BSS scoring A (active), Time Bin 9 (40-45 TOTAL), AVG",[3],0.10
same,"BSS scoring A (active), Time Bin 10 (45-50 TOTAL), AVG",[3],0.16
same,"BSS scoring A (active), Time Bin 11 (50-55 TOTAL), AVG",[3],0.09
same,"BSS scoring A (active), Time Bin 12 (55-60 TOTAL), AVG",[3],0.10
same,"BSS scoring E (eating/drinking), Time Bin 7 (30-35 TOTAL), AVG",[3],0.68
same,"BSS scoring E (eating/drinking), Time Bin 8 (35-40 TOTAL), AVG",[3],0.68
same,"BSS scoring E (eating/drinking), Time Bin 9 (40-45 TOTAL), AVG",[3],0.74
same,"BSS scoring E (eating/drinking), Time Bin 10 (45-50 TOTAL), AVG",[3],0.78
same,"BSS scoring E (eating/drinking), Time Bin 11 (50-55 TOTAL), AVG",[3],0.75
same,"BSS scoring E (eating/drinking), Time Bin 12 (55-60 TOTAL), AVG",[3],0.83
same,"BSS scoring G (grooming), Time Bin 7 (30-35 TOTAL), AVG",[3],0.12
same,"BSS scoring G (grooming), Time Bin 8 (35-40 TOTAL), AVG",[3],0.09
same,"BSS scoring G (grooming), Time Bin 9 (40-45 TOTAL), AVG",[3],0.12
same,"BSS scoring G (grooming), Time Bin 10 (45-50 TOTAL), AVG",[3],0.01
same,"BSS scoring G (grooming), Time Bin 11 (50-55 TOTAL), AVG",[3],0.04
same,"BSS scoring G (grooming), Time Bin 12 (55-60 TOTAL), AVG",[3],0.05
same,"BSS scoring R (resting), Time Bin 7 (30-35 TOTAL), AVG",[3],0.03
same,"BSS scoring R (resting), Time Bin 8 (35-40 TOTAL), AVG",[3],0.03
same,"BSS scoring R (resting), Time Bin 9 (40-45 TOTAL), AVG",[3],0.04
same,"BSS scoring R (resting), Time Bin 10 (45-50 TOTAL), AVG",[3],0.06
same,"BSS scoring R (resting), Time Bin 11 (50-55 TOTAL), AVG",[3],0.12
same,"BSS scoring R (resting), Time Bin 12 (55-60 TOTAL), AVG",[3],0.02
same,"BSS scoring A (active), Time Bin 7 (30-35 TOTAL)",[4],0 (4×) and 3 and 1 (3×) and 4 and 2 (2×) and 7
same,"BSS scoring A (active), Time Bin 8 (35-40 TOTAL)",[4],4 (2×) and 2 (2×) and 1 (4×) and 3 (3×) and 0
same,"BSS scoring A (active), Time Bin 9 (40-45 TOTAL)",[4],0 (7×) and 2 and 1 (3×) and 7
same,"BSS scoring A (active), Time Bin 10 (45-50 TOTAL)",[4],2 (2×) and 4 and 0 (7×) and 10 and 1
same,"BSS scoring A (active), Time Bin 11 (50-55 TOTAL)",[4],0 (6×) and 2 (2×) and 1 (3×) and 4
same,"BSS scoring A (active), Time Bin 12 (55-60 TOTAL)",[4],2 (2×) and 0 (6×) and 1 (3×) and 5
same,"BSS scoring E (eating/drinking), Time Bin 7 (30-35 TOTAL)",[4],6 (4×) and 7 (2×) and 8 (2×) and 5 and 3 and 10 (2×)
same,"BSS scoring E (eating/drinking), Time Bin 8 (35-40 TOTAL)",[4],5 (3×) and 7 and 9 and 8 (3×) and 4 and 6 (2×) and 10
same,"BSS scoring E (eating/drinking), Time Bin 9 (40-45 TOTAL)",[4],10 (2×) and 7 (2×) and 9 (2×) and 8 (3×) and 2 and 6 and 5
same,"BSS scoring E (eating/drinking), Time Bin 10 (45-50 TOTAL)",[4],8 (2×) and 6 (2×) and 10 (4×) and 0 and 9 (2×) and 7
same,"BSS scoring E (eating/drinking), Time Bin 11 (50-55 TOTAL)",[4],10 (3×) and 7 (3×) and 1 and 8 (4×) and 6
same,"BSS scoring E (eating/drinking), Time Bin 12 (55-60 TOTAL)",[4],6 and 7 (2×) and 9 (5×) and 10 (3×) and 5
same,"BSS scoring G (grooming), Time Bin 7 (30-35 TOTAL)",[4],3 and 1 (3×) and 2 (4×) and 0 (4×)
same,"BSS scoring G (grooming), Time Bin 8 (35-40 TOTAL)",[4],1 (7×) and 0 (3×) and 2 (2×)
same,"BSS scoring G (grooming), Time Bin 9 (40-45 TOTAL)",[4],0 (4×) and 1 (5×) and 2 and 3 and 4
same,"BSS scoring G (grooming), Time Bin 10 (45-50 TOTAL)",[4],0 (11×) and 1
same,"BSS scoring G (grooming), Time Bin 11 (50-55 TOTAL)",[4],0 (7×) and 1 (5×)
same,"BSS scoring G (grooming), Time Bin 12 (55-60 TOTAL)",[4],2 (2×) and 0 (8×) and 1 (2×)
same,"BSS scoring R (resting), Time Bin 7 (30-35 TOTAL)",[4],1 (3×) and 0 (9×)
same,"BSS scoring R (resting), Time Bin 8 (35-40 TOTAL)",[4],0 (9×) and 1 (3×)
same,"BSS scoring R (resting), Time Bin 9 (40-45 TOTAL)",[4],0 (9×) and 1 (2×) and 3
same,"BSS scoring R (resting), Time Bin 10 (45-50 TOTAL)",[4],0 (8×) and 4 and 1 (3×)
same,"BSS scoring R (resting), Time Bin 11 (50-55 TOTAL)",[4],0 (7×) and 2 (3×) and 7 and 1
